Reference: patent publication US6461997B1, “Triazole sulfones having herbicidal activity” (Monsanto Technology LLC, priority 1999, dated 2002)

Columns and labels:
SOLNI (black nightshade) = test: Pre-emergence herbicidal activity, warm season; assay type: in vivo, Solanum nigrum
Method in brief: (§1)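 Seeds sown in sterilised fertilised topsoil received surface-applied compound in 50:50 acetone/water, typically at 300, 100, 30 and 10 g/ha, then greenhouse-grown at 30/21° C (warm-season species) or 18/13° C (cool-season species). Percent inhibition versus untreated plants was scored at about 14 days, giving GR80; an asterisk marks activity short of 80% at the top rate.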

[1] = test system: GALAP (catchweed bedstraw); test: Pre-emergence herbicidal activity, cool season; assay type: in vivo, Galium aparine; conditions: lowest tested rate with 80% or greater inhibition; rates 300, 100, 30, 10 g/ha; about 14 days
Method in brief: as §1

SINAR (wild mustard) [2] = test: Pre-emergence herbicidal activity, cool season; assay type: in vivo, Sinapis arvensis; conditions: lowest tested rate with 80% or greater inhibition; rates 300, 100, 30, 10 g/ha; about 14 days
Method in brief: as §1

SASKR (russian thistle) = test: Pre-emergence herbicidal activity, cool season; assay type: in vivo, Salsola kali; conditions: lowest tested rate with 80% or greater inhibition; rates 300, 100, 30, 10 g/ha; about 14 days
Method in brief: as §1

[3] = test system: LAMPU (purple deadnettle); test: Pre-emergence herbicidal activity, cool season; assay type: in vivo, Lamium purpureum; conditions: lowest tested rate with 80% or greater inhibition; rates 300, 100, 30, 10 g/ha; about 14 days
Method in brief: as §1

AMARE (redroot pigweed) = test: Pre-plant incorporated (PPI) herbicidal activity, warm season; assay type: in vivo, Amaranthus retroflexus
Protocol: (§2) In another set of tests, the pre-plant incorporated (PPI) activity of compounds of this invention was evaluated on the same species as for the pre-emergence tests described above. In the PPI tests the following procedure, designed to simulate PPI application, was used.
(§3) A pre-prepared topsoil mixture (described above) was placed in a pot and compacted to a depth of 1.0 to 1.25 cm from the top of the pot. Seeds of each of several monocotyledonous and dicotyledonous annual plant species were placed on top of the soil. A sufficient quantity of soil to cover the seeds and level fill the pot was weighed into an open container. A known amount of the test compound was dissolved or suspended in an organic solvent and applied by spraying to this cover soil. The cover soil was thoroughly mixed to distribute the test compound throughout the cover soil, and was then applied as a cover layer over the seeds. Untreated soil was used as a cover layer for control pots. After treatment the plants were placed in a greenhouse where they received 0.64 cm of overhead irrigation. All subsequent watering consisted of a light overhead mist and/or subirrigation as needed for germination and growth. Tables 9 and 10 below relate to warm season plant species which were placed after pre-emergence treatment in a greenhouse with a 30/21° C. day/night temperature regime. Tables 11 and 12 below relates to cool season plant species placed after pre-emergence treatment in a greenhouse or growth chamber with an 18/13° C. day/night temperature regime. Only the compounds of Examples 1, 6, 8, 11, 13 and 15-20 were included in PPI tests.
(§4) Approximately 14 days after planting and treating, the plants were observed and herbicidal efficacy recorded as percent inhibition by comparison with untreated plants.

DATST (jimsonweed) = test: as above; assay type: in vivo, Datura stramonium
Protocol: as §2, §3, §4

[4] = test system: PANMI (wild proso millet); test: as above; assay type: in vivo, Panicum miliaceum
Protocol: as §2, §3, §4

PANDI (fall panicum) = test: as above; assay type: in vivo, Panicum dichotomiflorum; conditions: pre-plant incorporated; lowest tested rate with 80% or greater inhibition; about 14 days
Protocol: as §2, §3, §4

POLCO (wild buckwheat) = test: Pre-plant incorporated (PPI) herbicidal activity, cool season; assay type: in vivo, Polygonum convolvulus
Protocol: as §2, §3, §4

SINAR (wild mustard) [5] = test: as above; assay type: in vivo, Sinapis arvensis
Protocol: as §2, §3, §4

ALOMY (blackgrass) = test: as above; assay type: in vivo, Alopecurus myosuroides
Protocol: as §2, §3, §4

BROTE (downy brome) = test: as above; assay type: in vivo, Bromus tectorum
Protocol: as §2, §3, §4

[6] = pre-plant incorporated, GR80 = lowest tested rate with 80% or greater inhibition, approx. 14 days after treating, 30/21° C.
[7] = pre-plant incorporated, lowest tested rate with 80% or greater inhibition, about 14 days

Compound: CCN(CC)C(=O)n1cnc(S(=O)(=O)C(F)(F)Br)n1 [Example 1, 3-(bromodifluoromethylsulfonyl)-1-(N,N-diethylcarbamoyl)-1,2,4-triazole]
- Pre-emergence activity (GR80) SOLNI (SOLNI (black nightshade); GR80 = lowest tested rate (300, 100, 30, 10 g/ha) with 80% or greater inhibition, approx. 14 days after treating, 30/21° C.): 100 g/ha
- inhibition at 10 g/ha (SOLNI (black nightshade); Solanum nigrum, pre-emergence application, 10 g/ha, read-out: Percent inhibition, weed SOLNI): 0%
- inhibition at 30 g/ha (SOLNI (black nightshade); Solanum nigrum, pre-emergence application, 30 g/ha, read-out: Percent inhibition, weed SOLNI): 0%
- inhibition at 100 g/ha (SOLNI (black nightshade); Solanum nigrum, pre-emergence application, 100 g/ha, read-out: Percent inhibition, weed SOLNI): 0%
- inhibition at 300 g/ha (SOLNI (black nightshade); Solanum nigrum, pre-emergence application, 300 g/ha, read-out: Percent inhibition, weed SOLNI): 0%
- inhibition at 900 g/ha (SOLNI (black nightshade); Solanum nigrum, pre-emergence application, 900 g/ha, read-out: Percent inhibition, weed SOLNI): 20%
- Pre-emergence activity GR80, GALAP [1]: 100 g/ha
- Pre-emergence activity GR80, SINAR (SINAR (wild mustard) [2]): 100 g/ha
- Pre-emergence activity GR80, SASKR (SASKR (russian thistle)): 300 g/ha
- Pre-emergence activity GR80, LAMPU [3]: 30 g/ha
- inhibition at 10 g/ha (AMARE (redroot pigweed); Amaranthus retroflexus, PPI application, 10 g/ha, read-out: Percent inhibition AMARE): 0%
- inhibition at 30 g/ha (AMARE (redroot pigweed); Amaranthus retroflexus, PPI application, 30 g/ha, read-out: Percent inhibition AMARE): 60%
- inhibition at 100 g/ha (AMARE (redroot pigweed); Amaranthus retroflexus, PPI application, 100 g/ha, read-out: Percent inhibition AMARE): 80%
- inhibition at 300 g/ha (AMARE (redroot pigweed); Amaranthus retroflexus, PPI application, 300 g/ha, read-out: Percent inhibition AMARE): 100%
- inhibition at 900 g/ha (AMARE (redroot pigweed); Amaranthus retroflexus, PPI application, 900 g/ha, read-out: Percent inhibition AMARE): 100%
- PPI activity (GR80) AMARE (AMARE (redroot pigweed); [6]): 30 g/ha
- inhibition at 10 g/ha (DATST (jimsonweed); Datura stramonium, PPI application, 10 g/ha, read-out: Percent inhibition DATST): 0%
- inhibition at 30 g/ha (DATST (jimsonweed); Datura stramonium, PPI application, 30 g/ha, read-out: Percent inhibition DATST): 0%
- inhibition at 100 g/ha (DATST (jimsonweed); Datura stramonium, PPI application, 100 g/ha, read-out: Percent inhibition DATST): 0%
- inhibition at 300 g/ha (DATST (jimsonweed); Datura stramonium, PPI application, 300 g/ha, read-out: Percent inhibition DATST): 40%
- inhibition at 900 g/ha (DATST (jimsonweed); Datura stramonium, PPI application, 900 g/ha, read-out: Percent inhibition DATST): 95%
- PPI activity (GR80) DATST (DATST (jimsonweed); [6]): 30 g/ha
- inhibition at 10 g/ha ([4]; Panicum miliaceum, PPI application, 10 g/ha, read-out: Percent inhibition PANMI): 0%
- inhibition at 30 g/ha ([4]; Panicum miliaceum, PPI application, 30 g/ha, read-out: Percent inhibition PANMI): 60%
- inhibition at 100 g/ha ([4]; Panicum miliaceum, PPI application, 100 g/ha, read-out: Percent inhibition PANMI): 99%
- inhibition at 300 g/ha ([4]; Panicum miliaceum, PPI application, 300 g/ha, read-out: Percent inhibition PANMI): 100%
- inhibition at 900 g/ha ([4]; Panicum miliaceum, PPI application, 900 g/ha, read-out: Percent inhibition PANMI): 100%
- PPI activity GR80, PANMI [4, 7]: 30 g/ha
- PPI activity GR80, PANDI (PANDI (fall panicum)): 100 g/ha
- inhibition at 30 g/ha (POLCO (wild buckwheat); Fallopia convolvulus, weed, PPI application, 30 g/ha, read-out: Percent inhibition POLCO): 30%
- inhibition at 100 g/ha (POLCO (wild buckwheat); Fallopia convolvulus, weed, PPI application, 100 g/ha, read-out: Percent inhibition POLCO): 90%
- inhibition at 300 g/ha (POLCO (wild buckwheat); Fallopia convolvulus, weed, PPI application, 300 g/ha, read-out: Percent inhibition POLCO): 100%
- inhibition at 900 g/ha (POLCO (wild buckwheat); Fallopia convolvulus, weed, PPI application, 900 g/ha, read-out: Percent inhibition POLCO): 100%
- PPI activity GR80, POLCO (POLCO (wild buckwheat); [7]): * (activity observed, at least at highest rate, but <80% inhibition)
- inhibition at 30 g/ha (SINAR (wild mustard) [5]; Brassica, weed, PPI application, 30 g/ha, read-out: Percent inhibition SINAR): 100%
- inhibition at 100 g/ha (SINAR (wild mustard) [5]; Brassica, weed, PPI application, 100 g/ha, read-out: Percent inhibition SINAR): 100%
- inhibition at 300 g/ha (SINAR (wild mustard) [5]; Brassica, weed, PPI application, 300 g/ha, read-out: Percent inhibition SINAR): 100%
- inhibition at 900 g/ha (SINAR (wild mustard) [5]; Brassica, weed, PPI application, 900 g/ha, read-out: Percent inhibition SINAR): 100%
- PPI activity GR80, SINAR (SINAR (wild mustard) [5]; [7]): 100 g/ha
- inhibition at 30 g/ha (ALOMY (blackgrass); Alopecurus myosuroides, weed, PPI application, 30 g/ha, read-out: Percent inhibition ALOMY): 80%
- inhibition at 100 g/ha (ALOMY (blackgrass); Alopecurus myosuroides, weed, PPI application, 100 g/ha, read-out: Percent inhibition ALOMY): 99%
- inhibition at 300 g/ha (ALOMY (blackgrass); Alopecurus myosuroides, weed, PPI application, 300 g/ha, read-out: Percent inhibition ALOMY): 100%
- inhibition at 900 g/ha (ALOMY (blackgrass); Alopecurus myosuroides, weed, PPI application, 900 g/ha, read-out: Percent inhibition ALOMY): 100%
- PPI activity GR80, ALOMY (ALOMY (blackgrass); [7]): 100 g/ha
- inhibition at 30 g/ha (BROTE (downy brome); Bromus tectorum, weed, PPI application, 30 g/ha, read-out: Percent inhibition BROTE): 0%
- inhibition at 100 g/ha (BROTE (downy brome); Bromus tectorum, weed, PPI application, 100 g/ha, read-out: Percent inhibition BROTE): 20%
- inhibition at 300 g/ha (BROTE (downy brome); Bromus tectorum, weed, PPI application, 300 g/ha, read-out: Percent inhibition BROTE): 50%
- inhibition at 900 g/ha (BROTE (downy brome); Bromus tectorum, weed, PPI application, 900 g/ha, read-out: Percent inhibition BROTE): 100%
- PPI activity GR80, BROTE (BROTE (downy brome); [7]): 300 g/ha
